How the values were obtained:
Format in all cases: in vivo
[1] = test system: Papaver rhoeas; assay: Herbicidal action (outdoor trials); settings: scored approx. 4-6 weeks after application
Description: (§1) Herbicidal Action (Outdoor Trials)
(§2) The seeds or rhizome pieces of typical harmful plants were planted and grown under natural outdoor conditions. After the harmful plants had emerged, they were treated, as a rule at the 2- to 4-leaf stage, with various dosages of the compositions according to the invention at a water application rate of 100 to 400 l/ha (converted).
(§3) After the treatment (approx. 4-6 weeks after application), the herbidical activity of the active compounds or active compound mixtures was scored visually by comparing the treated plots with the untreated control plots. Damage and development of all above-ground parts of the plants was recorded. Scoring was done on a percentage scale (100% action=all plants dead; 50% action=50% of the plants and green plant parts dead; 0% action=no discernible action=like control plot). The score figures of in each case 4 plots were averaged. The results are listed in the tables below, where the activity measured for the independent use of the active compounds (A+B) and C) is stated in brackets.

[2] = test system: Winter wheat; assay: Crop damage in outdoor trials
Description: as §1, §2, §3

[3] = test system: Aspera spica venti; assay: Herbicidal action (outdoor trials); settings: 30 g of AS/ha, scored approx. 4-6 weeks after application
Description: as §1, §2, §3

[4] = test system: Brassica naupus; assay: Herbicidal action (outdoor trials); settings: 30 g of AS/ha, scored approx. 4-6 weeks after application
Description: as §1, §2, §3

[5] = test system: Physalis spp.; assay: Herbicidal action (outdoor trials); settings: 30 g of AS/ha, scored approx. 4-6 weeks after application
Description: as §1, §2, §3

[6] = test system: Polygonum convolvulus; assay: Herbicidal action (outdoor trials); settings: 30 g of AS/ha, scored approx. 4-6 weeks after application
Description: as §1, §2, §3

[7] = test system: Summer wheat; assay: Crop damage in outdoor trials; settings: 30 g of AS/ha, scored approx. 4-6 weeks after application
Description: as §1, §2, §3

[8] = test system: Avena ludoviciana; assay: Herbicidal action (outdoor trials); settings: 750 g of AS/ha, scored approx. 4-6 weeks after application
Description: as §1, §2, §3

[9] = test system: Wheat; assay: Crop damage in outdoor trials; settings: 750 g of AS/ha, scored approx. 4-6 weeks after application, trial with Avena ludoviciana
Description: as §1, §2, §3

[10] = test system: Veronic pericaria; assay: Herbicidal action (outdoor trials); settings: 150 g of AS/ha, scored approx. 4-6 weeks after application
Description: as §1, §2, §3

Question: Which “Papaver rhoeas % activity” value ([1]; 15 g of AS/ha) does the source give for `COc1nc(C)nc(NC(=O)NS(=O)(=O)c2ccccc2OCCCl)n1` [D), 1-[2-(2-chloroethoxy)phenylsulfonyl]-3-(4-methoxy-6-methyl-1,3,5-triazin-2-yl)urea] here?
Answer: The value was 65%.

Question: And the “Winter wheat % damage” value ([2]; 15 g of AS/ha, outdoor, scored approx. 4-6 weeks after application, trial with Papaver rhoeas)?
Answer: Its value is 0%.

Question: How did the “Aspera spica venti % activity” value [3] turn out when `CCOC(=O)[C@@H](C)Oc1ccc(Oc2nc3ccc(Cl)cc3o2)cc1` [J), fenoxaprop-P-ethyl] was run?
Answer: The value was 25%.

Question: What about the “Brassica naupus % activity” value [4] of the same compound?
Answer: Its value is 0%.

Question: And the “Physalis spp. % activity” value [5]?
Answer: The value was 0%.

Question: And the “Polygonum convolvulus % activity” value [6]?
Answer: Its value is 0%.

Question: And the “Summer wheat % damage” value [7]?
Answer: Its value is 0%.

Question: For `Cc1cc(Cl)ccc1OCC(=O)O` [C), (4-chloro-2-methylphenoxy)acetic acid], which “Avena ludoviciana % activity” value [8] is on record?
Answer: The value was 0%.

Question: And the “Wheat wheat % damage” value [9]?
Answer: Its value is 0%.

Question: What does the source list for `Nc1c(Cl)c(F)nc(OCC(=O)O)c1Cl` [I), 4-amino-3,5-dichloro-6-fluoro-2-pyridyloxy acetic acid]?
Answer: Veronic pericaria % activity [10]: 50%; Winter wheat % damage ([2]; in vivo): 1%

Question: Which results are given for `N#Cc1cc(Br)c(O)c(Br)c1` [E), 3,5-dibromo-4-hydroxy-benzonitrile]?
Answer: Papaver rhoeas % activity ([1]; 240 g of AS/ha): 85%; Winter wheat % damage ([2]; 240 g of AS/ha, outdoor, scored approx. 4-6 weeks after application, trial with Papaver rhoeas): 0%

Source: patent publication US20030186816A1, “Herbicide combinations comprising specific sulfonylureas” (Bayer CropScience GmbH, priority 2002, published 2003)
